Measured values: ChEMBL document CHEMBL3885881, “DrugMatrix”

Species on record: Rattus norvegicus
Experiment: DrugMatrix - Regimen: Daily Repeat
Assay type: toxicity, organism-based, Sprague-Dawley
Design: regimen Daily Repeat, gender Male, age 6-8 weeks
Details: in vivo, po, route oral GAVAGE, vehicle 100 % WATER; for ABSOLUTE BASOPHIL / ABSOLUTE EOSINOPHIL / ABSOLUTE LYMPHOCYTE / ABSOLUTE MONOCYTE / ABSOLUTE SEGMENTED NEUTROPHIL / BASOPHIL / EOSINOPHIL / ERYTHROCYTE COUNT / HEMATOCRIT / HEMOGLOBIN / LEUKOCYTE COUNT / LYMPHOCYTE / MEAN CORPUSCULAR HEMOGLOBIN / MEAN CORPUSCULAR HEMOGLOBIN CONCENTRATION / MEAN CORPUSCULAR VOLUME / MONOCYTE / NEUTROPHIL / NUCLEATED RED BLOOD CELLS / PLATELET COUNT: tissue Blood; for ALANINE AMINOTRANSFERASE / ALBUMIN / ALKALINE PHOSPHATASE / ASPARTATE AMINOTRANSFERASE / BLOOD UREA NITROGEN / CARBON DIOXIDE / CHLORIDE / CHOLESTEROL / CREATINE PHOSPHOKINASE / CREATININE / GLUCOSE / LACTATE DEHYDROGENASE / LIPASE / PHOSPHORUS / POTASSIUM / SODIUM / TOTAL BILIRUBIN / TOTAL PROTEIN / URIC ACID: tissue Plasma
[1] = 0 mg/kg, 72 h, dose level Control, time 3 day
[2] = 0 mg/kg, 120 h, dose level Control, time 5 day
[3] = 160 mg/kg, 72 h, dose level Low, time 3 day

## N[C@@H](Cc1ccc(O)c(O)c1)C(=O)O [LEVODOPA]
[1]
  ABSOLUTE BASOPHIL: 0 CELLS/uL
  ABSOLUTE EOSINOPHIL: 86.33 CELLS/uL
  ABSOLUTE LYMPHOCYTE: 12090.17 CELLS/uL
  ABSOLUTE MONOCYTE: 166.67 CELLS/uL
  ABSOLUTE SEGMENTED NEUTROPHIL: 1090.17 CELLS/uL
  BASOPHIL: 0%
  EOSINOPHIL: 0.67%
  ERYTHROCYTE COUNT: 5.57 x10E6/uL
  HEMATOCRIT: 35.33%
  HEMOGLOBIN: 13.83 G/DL
  LEUKOCYTE COUNT: 13.43 x10E3/uL
  LYMPHOCYTE: 89.83%
  MEAN CORPUSCULAR HEMOGLOBIN: 24.88 pg
  MEAN CORPUSCULAR HEMOGLOBIN CONCENTRATION: 39.15 G/DL
  MEAN CORPUSCULAR VOLUME: 63.52 fL
  MONOCYTE: 1.17%
  NEUTROPHIL: 8.33%
  NUCLEATED RED BLOOD CELLS: 0 /100WBC
  PLATELET COUNT: 1181.33 x10E3/uL
  ALANINE AMINOTRANSFERASE: 48.33 u/L
  ALBUMIN: 4.1 G/DL
  ALKALINE PHOSPHATASE: 395 u/L
  ASPARTATE AMINOTRANSFERASE: 81.83 u/L
  BLOOD UREA NITROGEN: 15.83 mg/dL
  CARBON DIOXIDE: 24.17 mmol/L
  CHLORIDE: 103.83 MEQ/L
  CHOLESTEROL: 63.67 mg/dL
  CREATINE PHOSPHOKINASE: 372.83 u/L
  CREATININE: 0.18 mg/dL
  GLUCOSE: 173.83 mg/dL
  LACTATE DEHYDROGENASE: 188.33 u/L
  LIPASE: 9.5 u/L
  PHOSPHORUS: 11.95 mg/dL
  POTASSIUM: 5.99 MEQ/L
  SODIUM: 144.43 MEQ/L
  TOTAL BILIRUBIN: 0.15 mg/dL
  TOTAL PROTEIN: 5.95 G/DL
  URIC ACID: 1.82 mg/dL
[2]
  ABSOLUTE BASOPHIL: 0 CELLS/uL
  ABSOLUTE EOSINOPHIL: 26.67 CELLS/uL
  ABSOLUTE LYMPHOCYTE: 7583.83 CELLS/uL
  ABSOLUTE MONOCYTE: 131.33 CELLS/uL
  ABSOLUTE SEGMENTED NEUTROPHIL: 674.83 CELLS/uL
  BASOPHIL: 0%
  EOSINOPHIL: 0.33%
  ERYTHROCYTE COUNT: 5.78 x10E6/uL
  HEMATOCRIT: 36.48%
  HEMOGLOBIN: 14.03 G/DL
  LEUKOCYTE COUNT: 8.42 x10E3/uL
  LYMPHOCYTE: 89.83%
  MEAN CORPUSCULAR HEMOGLOBIN: 24.3 pg
  MEAN CORPUSCULAR HEMOGLOBIN CONCENTRATION: 38.52 G/DL
  MEAN CORPUSCULAR VOLUME: 63.15 fL
  MONOCYTE: 1.67%
  NEUTROPHIL: 8.17%
  NUCLEATED RED BLOOD CELLS: 0 /100WBC
  PLATELET COUNT: 1186.67 x10E3/uL
  ALANINE AMINOTRANSFERASE: 50.17 u/L
  ALBUMIN: 4.07 G/DL
  ALKALINE PHOSPHATASE: 367.5 u/L
  ASPARTATE AMINOTRANSFERASE: 81.67 u/L
  BLOOD UREA NITROGEN: 16.17 mg/dL
  CARBON DIOXIDE: 32.33 mmol/L
  CHLORIDE: 101.5 MEQ/L
  CHOLESTEROL: 65.33 mg/dL
  CREATINE PHOSPHOKINASE: 255.33 u/L
  CREATININE: 0.17 mg/dL
  GLUCOSE: 139.33 mg/dL
  LACTATE DEHYDROGENASE: 95 u/L
  LIPASE: 10.5 u/L
  PHOSPHORUS: 10.38 mg/dL
  POTASSIUM: 6.11 MEQ/L
  SODIUM: 145.55 MEQ/L
  TOTAL BILIRUBIN: 0.17 mg/dL
  TOTAL PROTEIN: 5.98 G/DL
  URIC ACID: 0.93 mg/dL
[3]
  ABSOLUTE BASOPHIL: 0 CELLS/uL
  ABSOLUTE EOSINOPHIL: 48 CELLS/uL
  ABSOLUTE LYMPHOCYTE: 13173.67 CELLS/uL
  ABSOLUTE MONOCYTE: 48 CELLS/uL
  ABSOLUTE SEGMENTED NEUTROPHIL: 2130.33 CELLS/uL
  BASOPHIL: 0%
  EOSINOPHIL: 0.33%
  ERYTHROCYTE COUNT: 5.35 x10E6/uL
  HEMATOCRIT: 34.57%
  HEMOGLOBIN: 13.5 G/DL
  LEUKOCYTE COUNT: 15.4 x10E3/uL
  LYMPHOCYTE: 85.67%
  MEAN CORPUSCULAR HEMOGLOBIN: 25.23 pg
  MEAN CORPUSCULAR HEMOGLOBIN CONCENTRATION: 39.07 G/DL
  MEAN CORPUSCULAR VOLUME: 64.63 fL
  MONOCYTE: 0.33%
  NEUTROPHIL: 13.67%
  NUCLEATED RED BLOOD CELLS: 0 /100WBC
  PLATELET COUNT: 1267 x10E3/uL
  ALANINE AMINOTRANSFERASE: 43.67 u/L
  ALBUMIN: 4 G/DL
  ALKALINE PHOSPHATASE: 349.67 u/L
  ASPARTATE AMINOTRANSFERASE: 93.67 u/L
  BLOOD UREA NITROGEN: 15.67 mg/dL
  CARBON DIOXIDE: 22 mmol/L
  CHLORIDE: 103.33 MEQ/L
  CHOLESTEROL: 61 mg/dL
  CREATINE PHOSPHOKINASE: 665.33 u/L
  CREATININE: 0.14 mg/dL
  GLUCOSE: 158.33 mg/dL
  LACTATE DEHYDROGENASE: 401 u/L
  LIPASE: 8.67 u/L
  PHOSPHORUS: 12.63 mg/dL
  POTASSIUM: 5.77 MEQ/L
  SODIUM: 144.43 MEQ/L
  TOTAL BILIRUBIN: 0.2 mg/dL
  TOTAL PROTEIN: 5.73 G/DL
  URIC ACID: 1.87 mg/dL
